IC50 data for ten compounds are collected here from patent US20040106540A1, “Method of treating cancer” (priority 2003, published 2004).

Where only a bound is given, the exact number is not on record here.

Common to all, as to type: biochemical
One assay has as its target T1, PKA catalytic subunit (Bos taurus, UniProt P00517).
T1 construct: purchased UBI (Upstate Biotechnology) 14-114
Nature of the assay: PKA assay (counter screen), Kemptide phosphorylation. Conditions: read-out: Counter screens IC50 (μM) PKA. As to the method:
Each individual PKA assay consists of the following components:
1) 10 μl 5× PKA assay buffer (200 mM Tris pH7.5, 100 mM MgCl2, 5 mM 2-mercaptoethanol, 0.5 mM EDTA)
2) 10 μl of a 50 μM stock of Kemptide (Sigma) diluted into water
3) 10 μl ^33P-ATP (prepared by diluting 1.0 μl ^33P-ATP [10 mCi/ml] into 200 μl of a 50 μM stock of unlabeled ATP)
4) 10 μl appropriate solvent control dilution or inhibitor dilution
Assays were assembled in 96 deep-well assay plates. Components #3 and #4 were premixed and in a separate tube, a mixture containing equal volumes of components #1, #2, and #5 was prepared. The assay reaction was initiated by adding 30 μl of the components #1, #2, and #5 mixture to wells containing ^33P-ATP and inhibitor. The liquid in the assay wells was mixed and the assay reactions incubated for 20 minutes at room temperature. The reactions were stopped by adding 50 μl 100 mM EDTA and 100 mM sodium pyrophosphate and mixing.
The enzyme reaction product (phosphorylated Kemptide) was quantitated using p81 phosphocellulose 96 well filter plates (Millipore). Each well of a p81 filter plate was fill with 75 mM phosphoric acid. The wells were aspirated and 170 μl of 75 mM phosphoric acid was added to each well. […] The peptide was trapped on filter following the application of a vacuum. The filters were washed 5× by filling wells with 75 mM phosphoric acid followed by aspiration. After the final wash, the filters were allowed to air dry. 30 μl scintillation fluid was added to each well and the filters counted on a TopCount (Packard).
In general terms: Counterscreens check selectivity or assay interference.

For the next assay, the target named is T2, Akt3 (Homo sapiens, UniProt Q9Y243).
T2 construct: a middle T tag was added to the 5′ end of the full length Akt3 clone; middle T tag (EYMPME) (N); biotin tag (from pS2neo vector); made in house; host or cells: Drosophila S2 cells
The assay can be described thus: Akt kinase assay, phosphorylation of GSK3-derived peptide. Particulars: GSK3 peptide substrate. As to the method: (§1) The ^33P-labeled biotinylated product can be captured and detected using Streptavidin coated Flashplates (NEN LifeSciences) or Streptavidin Membrane Filter Plates (Promega).
(§2) The reactions were then incubated at room temperature for 45 minutes.
(§3) 200 μl of stopped reaction was transferred to a Streptavidin Flashplate® PLUS (NEN Life Sciences, catalog no. SMP103). The plate was incubated for ≧10 minutes at room temperature on a plate shaker. The contents of each well was aspirated, and the wells rinsed 2 times with 200 μl TBS per well. The wells were then washed 3 times for 5 minutes with 200 μl TBS per well with the plates incubated at room temperature on a platform shaker during wash steps.
(§4) The plates were covered with sealing tape and counted using the Packard TopCount with the appropriate settings for counting [^33P] in Flashplates.
(§5) The enzymatic reactions as described in Step I of the Streptavidin Flash Plate Assay above were performed.
(§6) The reaction was stopped by adding 20 μl of 7.5M Guanidine Hydrochloride.
(§7) The plate was then washed using a vacuum manifold as follows: 1) 4×200 μl/well of 2M NaCl; 2) 6×200 μl/well of 2M NaCl with 1% H3PO4; 3)2×200 μl/well of diH20; and 4)2×100 μl/well of 95% Ethanol. The membranes were then allowed to air dry completely before adding scintillant.
The top of the plate was sealed with clear sealing tape, and the plate then counted using the Packard TopCount with the appropriate settings for [^33P] with liquid scintillant. […]

In a further assay the test system is PKC (mix of isoforms). The assay can be described thus: PKC assay (counter screen), myelin basic protein phosphorylation. Particulars: read-out: Counter screens IC50 (μM) PKC. The method, then:
Each PKC assay consists of the following components:
1) 5 μl 10×PKC co-activation buffer (2.5 mM EGTA, 4 mM CaCl2)
2) 10 μl 5×PKC activation buffer (1.6 mg/ml phosphatidylserine, 0.16 mg/ml diacylglycerol, 100 mM Tris pH 7.5, 50 mM MgCl, 5 mM 2-mercaptoethanol)
3) 5 μl ^33P-ATP (prepared by diluting 1.0 μl ^33P-ATP [10 mCi/nil] into 100 μl of a 100 μM stock of unlabeled ATP)
4) 10 μl of a 350 μg/ml stock of myelin basic protein (MBP, UBI) diluted in water
5) 10 μl appropriate solvent control or inhibitor dilution
Final assay concentrations were as follows: 0.25 mM EGTA, 0.4 mM CaCl, 20 mM Tris pH 7.5, 10 mM MgCl, 1 mM 2-mercaptoethanol, 0.32 mg/ml phosphatidylserine, 0.032 mg/mil diacylglycerol, 10 μM 33P-ATP, 70 μg/ml MBP, 10 ng/ml PKC, 0.1 mg/ml BSA.
Assays are performed using 96 deep well assay plates. In each assay well 10 μl of solvent control or appropriate inhibitor dilution with 5 μl ^33P-ATP (components #5 and #3) were premixed. […] The liquid in the assay wells was thoroughly mixed and the assay reactions incubated for 20 minutes at room temperature. The reactions were stopped by adding 100 mM EDTA (50 μl) and 100 mM sodium pyrophosphate (50 μl) and mixing. Phosphorylated MBP was collected on PVDF membranes in 96 well filter plates and quantitated by scintillation counting.

Another assay deals with T3, delta PH-Akt1 (Homo sapiens, UniProt P31749).
T3 construct: PCR deletion mutagenesis was done using the full length Akt1 gene in the pS2neo vector as template; middle T tag (EYMPME) (N); biotin tag (from pS2neo vector); made in house; host or cells: Drosophila S2 cells
Nature of the assay: Akt kinase assay, phosphorylation of GSK3-derived peptide (PH domain deleted mutant). Conditions: GSK3 peptide substrate; Akt1 lacking PH domain; read-out: GSK3 Peptide Substrate IC50 (μM) Akt-1 delta PH.
From the text: For the expression of a pleckstrin homology domain (PH ) deleted (Δ aa 4-129, which includes deletion of a portion of the Akt1 hinge region) version of Akt1, PCR deletion mutagenesis was done using the full length Akt1 gene in the pS2neo vector as template. […] The final PCR product was digested with KpnI and SmaI and ligated into the pS2neo full length Akt1 KpnI/Sma I cut vector, effectively replacing the 5′ end of the clone with the deleted version.
as §1
(§8) GSK3α (S21) Peptide #3928, biotin-[…] PG (SEQ.ID.NO.: 15), FW=1517.8 (obtained from Macromolecular Resources) for Streptavidin Flashplate or Streptavidin Filter Plate detection.
(§9) GSK3α (S21) Peptide #G80613, […] (SEQ.ID.NO.: 16), FW=1547.8 (obtained from Research Genetics) for Phosphocellulose filter plate detection.
as §2, §3, §4, §5, §6, §7
(§10) The bottom of the plate was sealed with white backing tape, 30 μl/well of Microscint 20 (Packard Instruments, catalog no. 6013621) was added. The top of the plate was sealed with clear sealing tape, and the plate then counted using the Packard TopCount with the appropriate settings for [^33P] with liquid scintillant.
(§11) The enzymatic reactions were performed as described in Step 1 of the Streptavidin Flash Plate Assay (above) utilizing […] (SEQ.ID. NO.: 16) as the substrate in place of biotin-[…].
(§12) The reaction was stopped by adding 20 μl of 0.75% H3PO4.
(§13) The bottom of the plate was sealed with white backing tape, then 30 μl/well of Microscint 20 was added. The top of the plate was sealed with clear sealing tape, and the plate counted using the Packard TopCount with the appropriate settings for [^33P] and liquid scintillant.

A further assay has as its target T4, Akt2 (Homo sapiens, UniProt P31751).
T4 construct: a middle T tag was added to the 5′ end of the full length Akt2; middle T tag (EYMPME) (N); biotin tag (from pS2neo vector); made in house; host or cells: Drosophila S2 cells
Nature of the assay: Akt kinase assay, phosphorylation of GSK3-derived peptide. Conditions: GSK3 peptide substrate.
From the text: as §1, §8, §9, §2, §3, §4, §5, §6, §7, §10, §11, §12, §13

The target in another assay is T5, active human Akt1 (Homo sapiens, UniProt P31749).
T5 construct: purchased Upstate Biotechnology 14-276
The assay is described as above. Conditions: GSK3 peptide substrate; read-out: GSK3 Peptide Substrate IC50 (μM) Akt-1.
From the text: as §1, §8, §9, §2, §3, §4, §5, §6, §7, §10, §11, §12, §13

T3 sequence (P31749 with tags, fused parts or gaps): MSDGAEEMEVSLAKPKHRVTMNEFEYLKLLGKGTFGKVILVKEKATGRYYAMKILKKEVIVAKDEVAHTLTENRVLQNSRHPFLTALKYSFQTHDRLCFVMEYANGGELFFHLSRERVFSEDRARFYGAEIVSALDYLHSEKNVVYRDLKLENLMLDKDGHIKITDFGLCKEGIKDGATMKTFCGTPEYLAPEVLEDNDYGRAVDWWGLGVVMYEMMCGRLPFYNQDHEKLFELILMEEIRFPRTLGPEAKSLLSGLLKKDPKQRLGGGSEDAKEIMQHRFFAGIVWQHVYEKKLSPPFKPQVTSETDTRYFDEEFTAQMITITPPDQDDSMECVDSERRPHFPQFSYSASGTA
T5 sequence (P31749 whole entry): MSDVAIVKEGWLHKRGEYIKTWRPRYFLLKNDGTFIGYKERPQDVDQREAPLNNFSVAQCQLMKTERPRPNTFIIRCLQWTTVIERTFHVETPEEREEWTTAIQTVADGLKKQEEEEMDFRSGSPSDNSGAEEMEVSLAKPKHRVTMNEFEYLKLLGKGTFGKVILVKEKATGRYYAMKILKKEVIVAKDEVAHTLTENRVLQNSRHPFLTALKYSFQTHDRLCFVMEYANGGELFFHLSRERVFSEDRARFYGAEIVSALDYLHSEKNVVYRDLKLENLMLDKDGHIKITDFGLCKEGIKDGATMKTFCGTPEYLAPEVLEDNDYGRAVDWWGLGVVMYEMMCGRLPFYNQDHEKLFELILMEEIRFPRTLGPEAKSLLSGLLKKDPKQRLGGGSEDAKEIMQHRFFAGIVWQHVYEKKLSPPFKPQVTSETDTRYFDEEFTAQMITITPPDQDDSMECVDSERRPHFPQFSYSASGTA
T2 sequence (Q9Y243 whole entry): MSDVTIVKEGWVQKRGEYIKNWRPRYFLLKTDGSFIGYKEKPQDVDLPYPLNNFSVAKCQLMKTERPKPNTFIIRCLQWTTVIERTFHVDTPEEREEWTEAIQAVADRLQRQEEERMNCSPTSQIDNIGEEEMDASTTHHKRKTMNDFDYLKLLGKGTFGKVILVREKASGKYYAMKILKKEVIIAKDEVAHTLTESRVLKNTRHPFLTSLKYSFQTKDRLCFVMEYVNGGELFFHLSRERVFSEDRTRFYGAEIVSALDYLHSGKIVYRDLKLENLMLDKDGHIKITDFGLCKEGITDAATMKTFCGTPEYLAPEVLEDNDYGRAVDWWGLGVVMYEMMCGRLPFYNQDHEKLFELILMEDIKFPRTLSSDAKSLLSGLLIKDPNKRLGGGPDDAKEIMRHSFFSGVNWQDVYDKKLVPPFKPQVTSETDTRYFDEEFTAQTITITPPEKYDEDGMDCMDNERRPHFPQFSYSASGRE
T4 sequence (P31751 whole entry): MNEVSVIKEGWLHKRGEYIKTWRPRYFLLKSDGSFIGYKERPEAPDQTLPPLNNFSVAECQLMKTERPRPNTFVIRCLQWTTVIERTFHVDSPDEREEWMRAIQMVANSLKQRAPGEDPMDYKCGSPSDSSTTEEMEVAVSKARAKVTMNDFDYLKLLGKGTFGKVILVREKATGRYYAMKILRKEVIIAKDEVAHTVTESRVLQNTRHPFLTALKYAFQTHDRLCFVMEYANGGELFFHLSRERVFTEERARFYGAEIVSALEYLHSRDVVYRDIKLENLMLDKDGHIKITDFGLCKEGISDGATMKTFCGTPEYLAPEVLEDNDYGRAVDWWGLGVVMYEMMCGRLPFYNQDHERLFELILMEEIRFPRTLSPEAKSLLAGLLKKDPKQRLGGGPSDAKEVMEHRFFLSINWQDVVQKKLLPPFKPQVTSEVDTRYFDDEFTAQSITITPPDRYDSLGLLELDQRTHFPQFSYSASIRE

For “6-(2-Hydroxybutyl)oxy-3,7-diphenyl-[1,2,4]triazolo[4,3-b]pyridazine [Compound 9]”, the IC50 is more than 40 µM on PKA catalytic subunit; more than 50 µM against Akt3; more than 40 µM in the assay with PKC (mix of isoforms); more than 50 µM at delta PH-Akt1; more than 50 µM against Akt2; 4.65 µM on active human Akt1.
Turning to `CN(C)CC(C)(C)CNc1nn2c(-c3ccccc3)nnc2cc1C1CCC1` [Compound 1, N′-(7-Cyclobutyl-3-phenyl-[1,2,4]triazolo[4,3-b]pyridazin-6-yl)-2,2,N,N-tetramethyl-propane-1,3-diamine], the IC50 at PKA catalytic subunit was more than 40 µM; at Akt3, more than 50 µM; in the assay with PKC (mix of isoforms) it was more than 40 µM; on delta PH-Akt1 it was more than 50 µM; on Akt2 it was more than 50 µM; on active human Akt1 it was 1.4 µM.
As to `CN(C)CC(C)(C)CNc1nn2c(-c3cc(F)cc(F)c3)nnc2cc1C1CCC1` [Compound 2, N′-(7-Cyclobutyl-3-(3,5-difluoro-phenyl)-[1,2,4]triazolo[4,3-b]pyridazin-6-yl)-2,2,N,N-tetramethyl-propane-1,3-diamine], the IC50 is more than 40 µM on PKA catalytic subunit; more than 50 µM at Akt3; more than 40 µM in the assay on PKC (mix of isoforms); more than 50 µM at delta PH-Akt1; more than 50 µM at Akt2; 0.42 µM on active human Akt1.
Regarding `CN(C)CC(C)(C)CNc1nn2c(-c3ccc(F)c(F)c3)nnc2cc1C1CCC1` [Compound 3, N′-(7-Cyclobutyl-3-(3,4-difluoro-phenyl)-[1,2,4]triazolo[4,3-b]pyridazin-6-yl)-2,2,N,N-tetramethyl-propane-1,3-diamine], the IC50 on PKA catalytic subunit is more than 40 µM; on Akt3 it was more than 50 µM; with PKC (mix of isoforms), more than 40 µM; at delta PH-Akt1 it was more than 50 µM; on Akt2, more than 50 µM; at active human Akt1 it was 0.91 µM.
Turning to `CN(C)CC(C)(C)CNc1nn2c(-c3ccc(F)cc3)nnc2cc1C1CCC1` [Compound 4, N′-(7-Cyclobutyl-3-(4-fluoro-phenyl)-[1,2,4]triazolo[4,3-b]pyridazin-6-yl)-2,2,N,N-tetramethyl-propane-1,3-diamine], the IC50 is more than 40 µM at PKA catalytic subunit; more than 50 µM at Akt3; more than 40 µM in the assay with PKC (mix of isoforms); more than 50 µM on delta PH-Akt1; more than 50 µM against Akt2; 2.03 µM on active human Akt1.
Consider `CN(C)CC(C)(C)CNc1nn2c(-c3cccc(F)c3)nnc2cc1C1CCC1` [Compound 5, N′-(7-Cyclobutyl-3-(3-fluoro-phenyl)-[1,2,4]triazolo[4,3-b]pyridazin-6-yl)-2,2,N,N-tetramethyl-propane-1,3-diamine], for which the IC50 at PKA catalytic subunit is more than 40 µM; on Akt3, more than 50 µM; in the assay with PKC (mix of isoforms) it was more than 40 µM; at delta PH-Akt1, more than 50 µM; on Akt2, more than 50 µM; on active human Akt1, 0.4 µM.
As to `CN(C)CC(C)(C)CNc1nn2c(-c3ccccc3)nnc2c2ccccc12` [Compound 6, 2,2,N,N-tetramethyl-N-(3-phenyl-[1,2,4]triazolo[3,4-a]phthalazin-6-yl)-propane-1,3-diamine], the IC50 is more than 40 µM at PKA catalytic subunit; more than 50 µM on Akt3; more than 40 µM with PKC (mix of isoforms); more than 50 µM at delta PH-Akt1; more than 50 µM against Akt2; 10.5 µM at active human Akt1.
In the case of `COc1ccc(-c2nnc3c4ccccc4c(NCC(C)(C)CN(C)C)nn23)cc1` [Compound 7, N′-[3-(4-Methoxy-phenyl)-[1,2,4]triazolo[4,3-a]phthalazin-6-yl)-2,2,N,N-tetramethyl-propane-1,3-diamine], the IC50 on PKA catalytic subunit is more than 40 µM; against Akt3, more than 50 µM; with PKC (mix of isoforms), more than 40 µM; at delta PH-Akt1, more than 50 µM; against Akt2, more than 50 µM; at active human Akt1, 3.88 µM.
Turning to `OCCOc1nn2c(-c3ccccc3)nnc2cc1-c1ccccc1` [Compound 8, 6-(2-Hydroxyethyl)oxy-3 7-diphenyl-[1,2,4]triazolo[4,3-b]pyridazine], the IC50 at PKA catalytic subunit is more than 40 µM; in the assay with PKC (mix of isoforms), more than 40 µM; at active human Akt1, 15.9 µM.
`Nc1ccc(-c2nc3ccccc3nc2-c2ccc(N)cc2)cc1` [Compound 11, 2,3-bis(4-aminophenyl)-quinoxaline]: the IC50 at PKA catalytic subunit is more than 80 µM; against Akt3, more than 100 µM; in the assay on PKC (mix of isoforms), more than 80 µM; on delta PH-Akt1 it was more than 50 µM; against Akt2, 45 µM; at active human Akt1, 6.1 µM.
